Source: patent publication US10252260B2, “System and method for deforming particles” (CytoVale Inc., priority 2016, dated 2019)

Tests used:
[1] = test system: white blood cells; assay: Deformation of white blood cells in viscous co-flow, bullet metric as a function of treatment time; assay type: cell-based; conditions: white blood cells treated with 5 nM; compared to untreated controls; FIG. 10
Method: FIG. 10 illustrates the bullet metric as a function of treatment time for white blood cells treated with 5 nM phorbol 12-myristate as compared with a untreated control in embodiments of a system and method for deforming particles;
(§1) The system 100 and/or method 200 function to enable the deformation of individual particles in a high-throughput and consistent manner, with the ability to simultaneously generate and analyze multiple data types characterizing the single particles. In one embodiment, the system 100 and/or method 200 further function to enable the generation of data that directly correlates mechanical properties of the particles with one or more fluorescence characterizations of the particles (e.g., fluorescent antibody stains, live/dead cell stains, nuclear stains, stains for apoptosis, fluorescent proteins, etc.) at the single-particle level. This can allow the generation of a direct quantitative comparison between biomolecular properties and mechanical properties. […]
(§2) Regarding Block S240, preferably, deformation metrics can be measured to characterize the deformation of the particles as the particle travels along the deformation region. […]

[2] = test system: red blood cells; assay: Deformation of red blood cells in viscous co-flow (primaquine biomodel), diameter versus bullet metric; assay type: cell-based; conditions: red blood cells of different stiffness induced by different concentrations of primaquine; FIGS. 11A-11C
Text: FIGS. 11A-11C illustrate bullet metric as a function of size for red blood cells treated with different concentrations of primaquine in variations of a system and method for deforming particles; and
as §1, §2

Structure (SMILES) | change in a cell morphological metric (bullet metric) over treatment time [1] | cell morphological metric (e.g. bullet metric) [2]
CCCCCCCCCCCCCC(=O)O[C@@H]1[C@@H](C)[C@@]2(O)[C@@H](C=C(CO)C[C@]3(O)C(=O)C(C)=C[C@@H]23)[C@@H]2C(C)(C)[C@]12OC(C)=O | increased change in a cell morphological metric | 
COc1cc(NC(C)CCCN)c2ncccc2c1 (centres unmarked) [primaquine] |  | decrease in a cell morphological metric
